Data taken from article PMC9821162 (International Journal of Molecular Sciences, 2023).
Like-named read-outs stand apart in the source and are kept apart here.

Legend:
p-MET [1] = experiment: Immunohistochemical staining (IOD) of p-MET in tumor tissue; type: in vivo, nude mice (MDA-MB-231 human breast cancer xenograft); conditions: 15 and 50 mg/kg for 18 days
[2] = Pharmacokinetic study in tumor-bearing nude mice (LC-MS/MS); type: in vivo; conditions: plasma; for AUC(0-inf) / AUC(0-t) / Cmax / Tmax / half-life / MRT: nude, mouse; for MRT: read-out: MRT (mean resident time)
Method: Data processing was performed with Phoenix WinNonlin 8.1.0.3530 (Pharsight Corporation, Mountain View, CA, USA).

MDA-MB-231 cells = conditions: in vitro, cited from earlier work
HGF = experiment: Immunohistochemical staining (IOD) of HGF in tumor tissue; type: in vivo, nude mice (MDA-MB-231 human breast cancer xenograft); conditions: 15 and 50 mg/kg for 18 days
Method: After the paraffin sections of tumors were deparaffinized, rehydrated, and washed with PBS (pH 7.4), antigen retrieval was performed by boiling the sections in 10 mmol/L sodium citrate buffer (pH 6.0) in the microwave for 4 min. The endogenous peroxidase activity was quenched by placing the slides in 3% hydrogen peroxide in methanol. The slides were then blocked with 3% BSA-PBS, followed by incubation with a 1:425 dilution of the primary antibody of p-MET and HGF (Cell Signaling Technology, Danvers, MA, USA) overnight at 4 °C. Thereafter, the detection was performed using a biotin-conjugated secondary antibody and a streptavidin-horseradish peroxidase conjugate (SA-HRP), followed by colorimetric detection using diaminobenzidine (DAB). The sections were counterstained with hematoxylin and stabilized with a mounting medium. The immunohistochemical images with integrated optical density (IOD) of positive expression, which reflected the distribution characteristics of anti-p-MET and anti-HGF positive stained area in tumor tissues, were quantitatively analyzed using Image-Pro Plus version 6.0 (Media Cybernetics, Inc., Silver Spring, MD, USA).

MET = conditions: cited from earlier work
MET mRNA [3] = system: MET mRNA; parameters: species or system nude mice (MDA-MB-231 human breast cancer xenograft); conditions: in vivo
[4] = system: MDA-MB-231 xenograft tumors; experiment: Tumor growth inhibition assay, MDA-MB-231 tumor xenograft model; type: in vivo, BALB/c nude mice; conditions: for tumor inhibitory rate: day 18, n = 6; for mean tumor volume: day 18, vehicle group 285.00 ± 30.82 mm^3
Method: MDA-MB-231 cells (2 × 10^7) were suspended in 200 μL of PBS (pH 7.4) and were inoculated subcutaneously into the second mammary fat pads of the nude mice. The tumor diameter was measured with a vernier caliper and converted into tumor volume using the formula 1/2 × A × B^2 (A = larger diameter, B = smaller diameter). The treatment was started when the average tumor volume reached 50 mm^3.
Xenograft mice were randomly divided into three groups, with six in each group. […] The blank control group received only the vehicle solution. The tumor size and body weight were measured every three days. After 18 days of treatment, the animals were euthanized by cervical displacement. The tumors were collected after the final treatment and frozen at −80 °C until use.

MET mRNA [5] = experiment: Real-time PCR of MET mRNA in MDA-MB-231 cells; type: cell-based, human; conditions: in vitro
Method: (§1) In vitro, MDA-MB-231 cells were prepared as described above. […] Tumors were obtained from three mice per group at 0, 3, 6, 9, and 12 days. The total RNA was extracted using an RNA isolation kit (Takara, Shiga, Japan) according to the manufacturer’s instructions. cDNA was synthesized from 2 μg of RNA using a reverse transcriptase M-MLV synthesis kit (Takara). Real-time PCR was performed using the MyiQ5 real-time PCR detection system (Bio-Rad) with SYBR Premix Ex Taq (Takara). The PCR products for human β-actin, […], and HGF were synthesized with the primer pairs FP (forward primer) 5′-[…]-3′ and RP (reverse primer) 5′-[…]-3′ (β-actin, Gene ID: 60), FP 5′-[…]-3′ and RP 5′-[…]-3′ (MET, Gene ID: 4233), as well as FP 5′-[…]-3′ and RP 5′-[…]-3′ (HGF, Gene ID: 3082). All primers were purchased from AuGCT DNA-SYN Biotechnology Co., Ltd. (Dalian, China). Samples were run in triplicate under the following conditions: an initial denaturation for 30 s at 95 °C, followed by 45 cycles of 15 s at 95 °C, 30 s at 60 °C, and 33 s at 72 °C. The levels of gene expression in each sample were normalized to β-actin mRNA.

p-MET [6] = conditions: cited from earlier work
HGF mRNA [7] = experiment: Real-time PCR of HGF mRNA in MDA-MB-231 cells; type: cell-based, human; conditions: in vitro
Method: as §1

HGF mRNA [8] = experiment: Real-time PCR of HGF mRNA in MDA-MB-231 xenograft tumors; type: in vivo, nude mice (MDA-MB-231 human breast cancer xenograft); parameters: dose or concentration left out as unconfirmed; conditions: tumors at 0, 3, 6, 9, 12 days
Method: as §1

COc1cc2c(Oc3ccc(NC(=O)C4(C(=O)Nc5ccc(F)cc5)CC4)cc3F)ccnc2cc1OCCCN1CCOCC1 [Foretinib]
p-MET expression in the tumor tissues (IHC staining, IOD) (p-MET [1]): decreased in a dose-dependent manner
AUC(0-inf) ([2]; single oral dose 2 mg/kg): 0.407 ± 0.0634 µg·h/mL
AUC(0-t) ([2]; single oral dose 2 mg/kg): 0.366 ± 0.0764 µg·h/mL
Cmax ([2]; single oral dose 2 mg/kg): 0.0222 ± 0.0112 µg/mL
Tmax ([2]; single oral dose 2 mg/kg): 4 h
half-life ([2]; single oral dose 2 mg/kg): 15.1 ± 2.49 h
MRT ([2]; single oral dose 2 mg/kg): 20.1 ± 5.05 h
AUC(0-inf) ([2]; single oral dose 10 mg/kg): 7.26 ± 0.108 µg·h/mL
AUC(0-t) ([2]; single oral dose 10 mg/kg): 6.21 ± 0.423 µg·h/mL
Cmax ([2]; single oral dose 10 mg/kg): 0.334 ± 0.107 µg/mL
Tmax ([2]; single oral dose 10 mg/kg): 2 h
half-life ([2]; single oral dose 10 mg/kg): 19.9 ± 6.72 h
MRT ([2]; single oral dose 10 mg/kg): 25.1 ± 8.36 h
AUC(0-inf) ([2]; single oral dose 50 mg/kg): 13 µg·h/mL
AUC(0-t) ([2]; single oral dose 50 mg/kg): 12.6 µg·h/mL
Cmax ([2]; single oral dose 50 mg/kg): 1.43 ± 0.744 µg/mL
Tmax ([2]; single oral dose 50 mg/kg): 0.5 h
half-life ([2]; single oral dose 50 mg/kg): 9.48 ± 0.045 h
MRT ([2]; single oral dose 50 mg/kg): 13.3 ± 0.73 h
Vd (volume of distribution) ([2]; single oral dose 2 mg/kg): 109.72 ± 34.73 L/kg
k (elimination constant) ([2]; single oral dose 2 mg/kg): 0.046 ± 0.008 h⁻¹
Vd (volume of distribution) ([2]; single oral dose 10 mg/kg): 39.76 ± 13.95 L/kg
k (elimination constant) ([2]; single oral dose 10 mg/kg): 0.037 ± 0.012 h⁻¹
Vd (volume of distribution) ([2]; single oral dose 50 mg/kg): 60.90 ± 31.53 L/kg
k (elimination constant) ([2]; single oral dose 50 mg/kg): 0.073 ± 0.0003 h⁻¹
apoptosis (MDA-MB-231 cells; MDA-MB-231 cells): induce marked apoptosis
cell cycle arrest (MDA-MB-231 cells; MDA-MB-231 cells): arrest cancer cells mainly in the G2/M phase
cell viability of MDA-MB-231 (MDA-MB-231 cells): can decrease the cell viability
HGF expression in the tumor tissues (IHC staining, IOD) (HGF): decreased in a dose-dependent manner
expression of MET in MDA-MB-231 (MET): remained unchanged
mRNA expression level of MET (MET mRNA [3]): effectively suppressed
tumor inhibitory rate ([4]; 15 mg/kg/day intragastric): 42.79 ± 8.52%
tumor inhibitory rate ([4]; 50 mg/kg/day intragastric): 79.16 ± 4.58%
mean tumor volume ([4]; high dose group (50 mg/kg/day)): 80.67 ± 17.00 mm^3
mean tumor volume ([4]; low dose group (15 mg/kg/day)): 220.00 ± 70.14 mm^3
mRNA expression level of MET (MET mRNA [5]): effectively suppressed
expression of p-MET in MDA-MB-231 (p-MET [6]): remarkably inhibit
mRNA expression level of HGF (HGF mRNA [7]): effectively suppressed
mRNA expression level of HGF (HGF mRNA [8]): effectively suppressed
